Counter-ions that a name gives are not always drawn. Like-named read-outs stand apart in the source and are kept apart here.
What was measured:
[1] = tested on: cultured hippocampal neurons; experiment: F2P (fluorescein-dC-puromycin) reporter of endogenous protein synthesis in cultured hippocampal neurons; assay type: cell-based, rat; details: for effect of co-application on basal F2P fluorescence in dendrites: co-application with F2P
Experimental: Dissociated hippocampal neurons were prepared and maintained as previously described. Briefly, hippocampi from postnatal day 2 Sprague-Dawley rat pups were enzymatically and mechanically dissociated and plated into poly-lysine coated glass-bottom petri dishes (Mattek). Neurons were maintained for 14-21 days at 37° C. in growth medium (Neurobasal A supplemented with B27 and Glutamax-1, Invitrogen).
All images were acquired with an Olympus IX-70 confocal laser scanning microscope running Fluoview software (Olympus America, Inc). GFP, Alexa 488, and F2P were excited with the 488 nm line of an argon ion laser, and emitted light was collected between 510 and 550 nm. Alexa 568 was excited with the 568 nm line of a krypton ion laser, and emitted light was collected above 600 nm. In experiments where two channels were acquired simultaneously, settings were chosen to ensure no signal bleed-through between channels. For between-dish comparisons on a given day, all images were acquired at the same settings, without knowledge of the experimental condition during image acquisition. All post-acquisition processing and analysis was carried out with ImageJ (NIH) and Matlab (The MathWorks, Inc.). To facilitate the analysis of fluorescence signal as a function of distance from the soma, dendrites were linearized and extracted from the full-frame image using a modified version of the Straighten plugin for ImageJ.
To determine whether D1/D5 receptors activate the translation of endogenous mRNAs in living neurons, fluorescein-dC-puromycin (F2P), a novel protein synthesis reporter based on the peptidyl transferase inhibitor puromycin [35] was used. Because puromycin is a structural analog of an amino-acyl tRNA molecule, it enters ribosomes actively engaged in translation where it becomes covalently attached to the carboxy-terminus of nascent proteins through a peptide linkage. Initially, whether F2P can serve as a protein synthesis reporter in cultured hippocampal neurons was examined (FIGS. 11A, B). […] (FIG. 11B).

dopamine D1/D5 receptor = experiment: GFP protein synthesis reporter imaging in cultured hippocampal neurons; assay type: cell-based, rat; details: co-application with SKF
Experimental: Dissociated hippocampal neurons were prepared and maintained as previously described [34]. Briefly, hippocampi from postnatal day 2 Sprague-Dawley rat pups were enzymatically and mechanically dissociated and plated into poly-lysine coated glass-bottom petri dishes (Mattek). Neurons were maintained for 14-21 days at 37° C. in growth medium (Neurobasal A supplemented with B27 and Glutamax-1, Invitrogen).
All images were acquired with an Olympus IX-70 confocal laser scanning microscope running Fluoview software (Olympus America, Inc). GFP, Alexa 488, and F2P were excited with the 488 nm line of an argon ion laser, and emitted light was collected between 510 and 550 nm. Alexa 568 was excited with the 568 nm line of a krypton ion laser, and emitted light was collected above 600 nm. […] To facilitate the analysis of fluorescence signal as a function of distance from the soma, dendrites were linearized and extracted from the full-frame image using a modified version of the Straighten plugin for ImageJ.
Dendrites were analyzed for time-lapse as follows: fluorescence was averaged across the width of linearized dendrites, generating a vector of mean pixel intensities equal to the length of the dendrite, ΔF/F (Ftn-Ft0/Ft0) was then computed at each pixel along the dendritic length. […]

D1/D5 receptors = experiment: Miniature excitatory postsynaptic currents (mEPSCs) in cultured hippocampal neurons; assay type: cell-based, rat; details: anisomycin with DHX; PKI6-22 in the recording pipette
From the text: Given the increase in the total and synaptic GluRl population, the effects of dopamine agonists on synaptic transmission was examined. To monitor synaptic strength before and after exposure to a dopamine agonist, miniature excitatory postsynaptic currents (mEPSCs) in cultured hippocampal neurons were examined.

16610D9 thymocyte cells [2] = experiment: Western analysis of treated cells with anti-fluorescein antibody; assay type: cell-based, mouse; details: conjugates 25 μM; anisomycin 250 ng/mL
Experimental: Live cell number was determined using trypan blue exclusion dye and each sample was adjusted to contain an equal number of live cells. Cell pellets were resuspended in 2× lysis buffer (100 mM β-glycerophosphate, 3 mM EGTA, 2 mM EDTA, 0.2 mM sodium-orthovanadate, 2 mM DTT, 20 μg/ml aprotinin, 20 μg/ml leupeptin, 50 μg/ml trypsin inhibitor, and 4 μg/ml pepstatin, and 1% Triton X-100) and incubated on ice for 30 min. Cell debris was removed by centrifugation at 20,000×g for 30 min. Cell lysate was combined with SDS loading buffer (0.12 M Tris-Cl (pH 6.8), 20% glycerol, 4% (w/v) SDS, 2% (v/v) β-mercaptoethanol, and 0.001% bromophenol blue) and heated at 90° C. for 10 min. Samples were applied entirely to a 4% stacking portion of a 10% glycine-SDS-polyacrylamide gel (30 mA for 1 h, 30 min). Protein was transferred using standard Western transfer techniques and the blot was probed with an anti-fluorescein antibody followed by an anti-rabbit-horseradish peroxidase conjugate (Pierce chemicals). The chemiluminescence reaction was carried out using the ECL PLUS Western Blotting […] System (Amersham BioSciences).
Action of puromycin and the conjugates should result in proteins bearing these compounds at their C-terminus in vivo. Western blot analysis of cellular lysates was chosen to examine if incorporation occurred in vivo and compare the resulting signal with the control conjugates. […]

[3] = tested on: 16610D9 cells infected with MIGPAC; experiment: Enrichment of GFP(+) MIGPAC-infected (PAC-expressing) cells, flow cytometry; assay type: cell-based, mouse; details: 48 h; 4.3% GFP-positive before treatment
Experimental: (§1) The PAC gene was cloned into MIG using BgII and EcoRI restriction sites to yield MIGPAC. 293T-HEK fibroblasts (American Tissue Culture Collection) were co-transfected with pECL-Eco [30] and MIG or MIGPAC by calcium phosphate precipitation. After 12 hours, the precipitate was removed, cells were washed once with PBS, and 4 mL of fresh complete Dulbecco's Modified Eagle Medium (DMEM) supplemented with 10% fetal calf serum (FCS). Viral supernatant was removed 24 hours later and used in infection of 16610D9 cells. One million D9 cells were spin-infected with 0.4 mL of viral supernatant suplemented with 5 μg/ml Polybrene (Sigma-Aldrich).
(§2) 16610D9 cells infected with either MIG of MIGPAC were cultured in RPMI media with 10% FBS and grown at […] in a humidified atmosphere with 5% CO2. For each experiment, 16610D9 cells (0.25×10^6/well) were added to 24-well microtiter plates along with puromycin, puromycin-conjugate, and control molecules dissolved in the minimum amount of either media or PBS. After a 48 h incubation, the cells were washed twice in 2 mL PBS+4% FCS and resuspended in PBS+4% FCS supplemented with 2% formaldehyde along with incubation at 37° C. for 10 min. […]
(§3) Foreign genes can be inserted into D9 cells by infection with a viral vector (see Experimental Procedures). […] MIG expresses GFP so that infection efficiency can be monitored by GFP fluorescence (FIG. 7A). […]

[4] = tested on: 16610D9 cells infected with MIG; experiment: Killing of MIG-infected (no PAC resistance) cells, flow cytometry; assay type: cell-based, mouse; details: long exposure, 48 h incubation
Experimental: as §1, §2, §3

16610D9 thymocyte cells [5] = experiment: Detection of protein synthesis events in live cells by flow cytometry (fluorescence labeling); assay type: cell-based
Experimental: 16610D9 cells (0.5 million mL^−1) were combined with the various puromycin conjugates and control molecules resuspended in the minimum volume of PBS or media as described above. After a 24 h incubation, the cells were washed twice in 2 mL PBS+4% FCS and resuspended in PBS+4% FCS supplemented with 2% formaldehyde followed by incubation at 37° C. for 10 min or used directly after washing for immediate flow cytometry analysis.
In order to analyze the activity of puromycin conjugates in vivo, choosing of both an appropriate cell line and an appropriate quantitation and detection scheme was needed. While microscopy is a powerful means to analyze individual cells and small sections of tissue, performance of experiments where thousands to millions of cells could be examined for protein labeling was desired. Therefore, flow cytometry was chosen as the primary means to analyze uptake and incorporation of the conjugates. In addition to providing a quantitative measure of fluorescence and cell size, flow cytometry methods enable live cells and dead cells to be readily distinguished.

globin translation [6] = details: previously shown, ref [14]; read-out: IC50 (in vitro translation inhibition) from reference [14]; cited from earlier work
globin translation [7] = experiment: In vitro potency determination: inhibition of globin mRNA translation in rabbit reticulocyte lysate; assay type: biochemical; details: read-out: IC50: concentration of puromycin conjugate required for 50% inhibition of globin translation, 30° C. 60 min, standard error <5% in replicates
Experimental: Translation reactions containing [^35S]Met were mixed in batch on ice and added in aliquots to microcentrifuge tubes containing an appropriate amount of puromycin conjugate (or control molecule) dried in vacuo. […] Inhibitor, lysate preparation (including all components except template), and globin mRNA were mixed simultaneously and incubated at 30° C. for 60 min. Each reaction (2 μL) was combined with 8 μL of tricine loading buffer (80 mM Tris-Cl (pH 6.8), 200 mM DTT, 24% (v/v) glycerol, 8% sodium dodecyl sulfate (SDS), and 0.02% (w/v) Coomassie blue G-250), heated to 90° C. for 5 min, and applied entirely to a 4% stacking portion of a 15% tricine-SDS-polyacrylamide gel containing 20% (v/v) glycerol [29] (30 mA for 1 h, 30 min). Gels were fixed in 10% acetic acid (v/v) and 50% (v/v) methanol, dried, exposed overnight on a Phosphorlmager screen, and analyzed using a Storm Phosphorlmager (Molecular Dynamics).
Initial analysis began by examining the activity of each of the conjugates in vitro for their ability to inhibit protein translation.

[8] = 24 h incubation, conjugates at 50 μM, live-cell gate

For `Oc1cc2c(cc1O)[C@H]1c3ccccc3CN[C@@H]1CC2` (racemic) [DHX, dihydrexidine], the “F2P incorporation in locally perfused dendrites compared to control dendrites” value ([1]; perfused 15 minutes on dendritic segment, p<0.05, n=8 dendrites) was “significantly greater F2P incorporation”.
For `COc1ccc(C[C@H]2NC[C@H](O)[C@H]2OC(C)=O)cc1` [anisomycin], the “effect of co-application on the effects of SKF on GFP signal” value (dopamine D1/D5 receptor) was “completely prevented”, the “effect on DHX-induced increase in mEPSC frequency” value (D1/D5 receptors) was “completely prevented” and the “effect of co-application on basal F2P fluorescence in dendrites” value [1] was “significantly attenuated”. For the same molecule, the “effect on DHX-produced enhancement of F2P incorporation” value ([1]; preincubation and perfusion with anisomycin, p<0.01) was “completely blocked” and the “incorporation into cellular protein (anti-fluorescein Western signal)” value (16610D9 thymocyte cells [2]) was “essentially no signal”.
In the case of `COc1ccc(C[C@H](N)C(=O)N[C@H]2[C@@H](O)[C@H](n3cnc4c(N(C)C)ncnc43)O[C@@H]2CO)cc1` [puromycin, L-Puromycin hydrochloride], the “GFP-positive cells in population after treatment” value [3] is reported as 94%, the “effect of co-application on basal F2P fluorescence in dendrites” value [1] is reported as “significantly attenuated” and the “effect on MIG infected cells (killing)” value [4] is reported as “almost complete killing of both GFP-positive and GFP-negative cells”.
For Fluorescein-puromycin [FP], the “rank order of fluorescence enhancement” value (16610D9 thymocyte cells [5]; [8]) is given as “DMT-F2P-Me (12)>FB2P (1)˜BF2P (8)>F2P (4)˜F2P-Me (10)>FP”, the “relative level of fluorescence enhancement” value (16610D9 thymocyte cells [5]; [8]) is given as “small fluorescence enhancement” and the IC50 (globin translation [6]) is given as 120 µM.
For biotin-dC-puromycin, the IC50 (globin translation [6]) is listed as 11 µM.
In the case of biotin-puromycin, the IC50 (globin translation [6]) is given as 54 µM.
In the case of fluorescein-dC-puromycin [F2P], the IC50 (globin translation [7]) is reported as 22 µM, the “enhanced fluorescence relative to the F2A control molecule” value (16610D9 thymocyte cells [5]; 5 μM and 25 μM, live cell population) is reported as “up to 4 fold” and the “effect on cell viability” value (16610D9 thymocyte cells [5]; 5 μM and 25 μM, F2P statement for 48 hours incubation) is reported as “kills the majority of cells”. The “rank order of fluorescence enhancement” value (16610D9 thymocyte cells [5]; [8]) was “DMT-F2P-Me (12)>FB2P (1)˜BF2P (8)>F2P (4)˜F2P-Me (10)>FP” and the “F2P reporter fluorescence in neurons” value ([1]; brief (˜15 min) bath application) was “fluorescence detected in both the cell body and the dendrites”.
